In data set [1] the test system is P388/0 (murine lymphoid neoplasm) cells. Put plainly: cells. As to conditions: read-out: IC50 (nM) P388. Type of data set: cell-based. As for the experimental part:
(§1) In this example, a series of in vitro assays were conducted to determine the IC50 for unmodified camptothecin, unmodified paclitaxel and several of the high molecular weight prodrugs prepared as set forth above.
(§2) All compounds were independently tested against one or more of the P388/0 (murine lymphoid neoplasm, Southern Research Institute), HT-29 (human colon carcinoma) and A549 (human lung adeno carcinoma) cell lines.
(§3) The P388/0 cells were grown in RPMI 1640 medium (Whittaker Bioproducts, Walkersville, Md.)+10% FBS (Hyclone Inc., Logan Utah). The HT-29 cells were grown in DMEM (GIBCOBRL)+10% FBS (Hyclone, Inc.). The A549 cells were grown in DMEM/F-12 (Biowhitaker)+10% FBS (Heat inactivated). Bioassays were performed in their respective media containing antibiotics and fungizone.
(§4) Camptothecin and paclitaxel were dissolved in DMSO and diluted to the appropriate concentration in culture media. The PEG-Camptothecin and PEG-paclitaxel prodrugs were dissolved in water and diluted to the appropriate concentrations in culture media.
(§5) The assays were performed in duplicate in 96-well microtiter cell culture plates. Two fold serial dilution of the compounds were done in the microtiter plates. Cells were detached by incubating with 0.1% Trypsin/Versene at 37°. Trypsin was inactivated by adding the appropriate media for each cell line containing 10% FBS. To each well of the microtiter plates, 10,000 cells were added. After three days, cell growth was measured by addition of a metabolic indicator dye, Alamar Blue, according to the manufacturer's protocol. The IC50 value for each test compound was determined and compared to the IC50 for the appropriate reference compound.
P-388 Murine leukemia cell line

Data set [2] deals with HT-29 (human colon carcinoma) cells. Briefly: cells. Type of data set: cell-based. As to conditions: read-out: IC50 (nM) HT-29. How it is done: as §1, §2, §3, §4, §5
HT29 Human colon carcinoma cell line

For data set [3], the system named is one or more of the P388/0, HT-29 and A549 cell lines. Briefly: cells. It counts as cell-based. How it is done:
as §1, §2, §3, §4, §5
The IC50 values for some of the compounds formed in examples 47-53 were determined using the same process as that described above with regard to example 45 and compared to native camptothecin.

Data set [4] concerns murine leukemia cell line P388/0. Briefly: Murine Leukemia Model (In vivo P388). More on the design: species or system mouse. The note with it: ip, days 1-5; for Survival Rate %: survival at 40 days. As for the experimental part:
(§6) In this Example, the in vivo activity of some of the compounds prepared in accordance with the present invention was assessed using the Murine Leukemia Model and the Colorectal Xenograft model.
The compounds shown in the Table below were screened for in vivo activity against the murine leukemia cell line P388/0 (mouse, lymphoid neoplasm). The cell line was obtained from Southern Research Institute (Birmingham, Ala.) and grown in RPMI 1640 supplemented with 10% FBS. P388/0 cells were subcultured two times per week and log phase cultures (viability ≥95%/o) were used for all in vivo experiments. Female CD2F1 mice (Taconic Farms, Germantown, N.Y.) at 7-8 weeks of age were used for study. Following one week of acclimation, mice were implanted ip with P388/0 cells (5×10^5 cells/mouse) at designated day 0 (zero). The mice were randomly assigned to experimental groups (10-20 per group). The groups included Control groups and several which received one of the drugs or prodrugs. The mice were then dosed (500 μL, ip) for 5 consecutive days (days 1-5). Control groups received vehicle (intralipid or water). The mice were monitored for up to 40 days, and the treatment was evaluated and expressed as the percentage survival at 40 days.

The test system of data set [5] is solid tumor HT-29 (human, colon adenocarcinoma). Briefly: Colorectal Xenograft (In vivo HT-29). As to conditions: total active dose 62.5 mg/kg, i.p. More on the design: species or system human tumor in nu/nu mice. How it is done:
as §6
(§7) Female nu/nu mice (Harlan Sprague Dawley, Madison, Wis.), 18-24 g and 10-14 weeks old, at onset of treatment were used. The solid tumor HT-29 (human, colon adenocarcinoma) was obtained from the ATCC (HTB 38) and grown in DMEM supplemented with 10% FBS. Cells were subcultured once a week and for in vivo experiments viabilities were ≥90%. Mice were housed in microisolator filtration racks, and maintained with filtered acidified water and sterile laboratory chow ad libitum. Following one week of acclimation, tumors were established by injecting 1×10^6 harvested HT-29 tumor cells in a single subcutaneous site, on the flank of mice in the left axillary region. The tumor injection site was observed twice weekly and measured once palpable. The tumor volume for each mouse was determined by measuring two dimensions with calipers and calculated using the formula: tumor volume=(length×width^2)/2. When tumors reached the average volume of 300 mm^3, the mice were divided into their experimental groups. The non-Control groups received Camptothecin 2.5 mg/kg/day, the prodrugs being dosed on the basis of camptothecin content. The mice were sorted to evenly distribute tumor size, grouped into 5 mice/cage, and ear punched for permanent identification. Mice receiving drugs were treated i.p. 5 times a week, Monday through Friday for 5 weeks with 500 μL of test article. Mouse weight and tumor size were measured at the beginning of study and weekly through week 7. The overall growth of tumors was expressed as the percent change in tumor size calculated by subtracting mean initial tumor volume from mean tumor volume at the end of the treatment and dividing by mean initial tumor volume.

The nature of data set [6]: Colorectal Xenograft (In vivo HT-29). Also on record: species or system human tumor in nu/nu mice. The note with it: mouse, in vivo, ip; week 5 (end of treatment); total active dose 62.5 mg/kg. As for the experimental part:
as §6, §7

[7] abbreviates: cell line not stated, same process as example 45, read-out: IC50.

Results on 15 molecules are retold here after patent US6127355A (priority 1999, dated 2000).

Read-outs that look alike come from different tables or passages of the source.

In the case of `CC[C@@]1(O)C(=O)OCc2c1cc1n(c2=O)Cc2cc3c(CN(C)C)c(O)ccc3nc2-1` [Topotecan, reference compound], the IC50 amounted to 29 nM in data set [1] (Mus musculus, 72 h, P388 murine leukemia cell line, three days) and 99 nM in data set [2] (72 h, HT-29 human colon carcinoma cell line, three days).
For the molecule “camptothecin-20-O-PEG5kDa carbamate [Compound 57]”, the IC50 in data set [3] (setting [7]) stood at 912 nM.
On the same count and under the same terms, under `CC[C@@]1(OC(=O)ON2C(=O)CCC2=O)C(=O)OCc2c1cc1n(c2=O)Cc2cc3ccccc3nc2-1` [Compound 56, camptothecin-20-O-N-hydroxysuccinimidyl carbonate] stands 1030 nM.
As to “Bis-Camptothecin-N-Acetyl-PEG40kDa -20-O-Glycinate [Compound 37b]”, the IC50 in data set [1] came to 49 nM; in data set [2] it was 137 nM.
`CC[C@@]1(O)C(=O)OCc2c1cc1n(c2=O)Cc2cc3ccccc3nc2-1` [Camptothecin, reference compound]: the “Survival Rate %” value in data set [4] (total active dose 16 mg/kg) is listed as 80%. Moreover, the IC50 is 5 nM in data set [1] (Mus musculus, P388, 72 h); 21 nM in data set [2] (Homo sapiens, HT-29, 72 h); 7 nM in data set [3]. In addition, the “Body weight change (%)” value in data set [5] (week 5 (end of treatment)) and in data set [5] (week 7 (2 week post treatment)) was -3% throughout. Moreover, the results for the “Tumor growth (%)” value in data set [5] (week 5 (end of treatment)) and in data set [5] (week 7 (2 week post treatment)) were -20% and 62%, respectively. Moreover, in data set [6], the mortality at 840 h was 50%.
Turning to “Camptothecin-20-O-ester of 2-PEG40k N-methylcarbamoyl Acetic Acid [Compound 5b]”, the IC50 is 18 nM in data set [1] and 153 nM in data set [2].
Take `CC[C@@]1(OC(=O)OCC(C)C)C(=O)OCc2c1cc1n(c2=O)Cc2cc3ccccc3nc2-1` [Compound 60, camptothecin-20-O-isobutyryl carbonate]: in data set [3] (read-out: IC50), the IC50 turned out to be 29 nM.
In the case of `CC[C@@]1(OC(=O)Oc2ccc([N+](=O)[O-])cc2)C(=O)OCc2c1cc1n(c2=O)Cc2cc3ccccc3nc2-1` [Compound 55, camptothecin-20-O-paranitrophenyl carbonate], in data set [3] (setting [7]), the IC50 stood at 365 nM.
Consider “Bis-Camptothecin-N-PEG40kDa -20-O-Glycinate [Compound 37a]”, for which the results for the IC50 in data set [1] and in data set [2] were 24 nM and 110 nM, respectively.
In the case of `CC[C@@]1(OC(=O)n2ccnc2)C(=O)OCc2c1cc1n(c2=O)Cc2cc3ccccc3nc2-1` [Compound 54, camptothecin-20-O-carbonylimidazolyl carbonate], the IC50 in data set [3] (read-out: IC50) is 69 nM.
On to “Camptothecin-20-O-ester of 2-PEG40kDa Carbamoylacetic Acid [Compound 5a]”, for which the IC50 in data set [1] (P388 murine leukemia cell line, three days) was 7 nM; in data set [2] (HT-29 human colon carcinoma cell line, three days), 30 nM.
Consider `CC[C@@]1(OC(=O)OC)C(=O)OCc2c1cc1n(c2=O)Cc2cc3ccccc3nc2-1` [Compound 59, camptothecin-20-O-methyl carbonate], for which the IC50 in data set [3] (setting [7]) was 11 nM.
As for “Camptothecin-20-O-Glycinate PEG40kDa Carbamate Derivative [Compound 49]”, the results for the IC50 in data set [1] and in data set [2] were 33 nM and 40 nM, respectively.
Take “Camptothecin-20-O-ester of PEG20kDa diacid”: in data set [4] (total active dose 11.4 mg/kg), the “50% survival” value is 21 days and the “Survival Rate %” value is 10%.
As for “Camptothecin-20-O-Glycinate PEG40kDa -Amide Derivative [Compound 48]”, the “Survival Rate %” value in data set [4] (total active dose 16 mg/kg) was determined as 80%. In addition, the “Tumor growth (%)” value in data set [5] (week 5 (end of treatment)) was -80%; in data set [5] (week 7 (2 week post treatment)), -96%.
